Data set [1] relates to tumor models. As to conditions: current specific activity.
Data set [2] in a line: Radiochemical purity and stability of 68GaPSMA-R2 by HPLC. The data set is classed as physicochemical. As to conditions: for stability to the radiolytic degradation / radiochemical purity: up to 4 hours; for stability to the radiolytic degradation: without gentisic acid; for radiochemical purity: without the gentisic acid. As for the experimental part: Radiochemical purity and identification of ^68GaPSMA-R2 by HPLC
Chromatographic conditions
The molecule was labelled with ^68Ga using E&Z generator with an activity in the range of […]. The labelling was performed at 95° C. for 7 minutes with Gallium buffer (pH 3.2-3.8). Experiments were performed by testing different amount of gentisic acid as radiolytic scavenger and peptide amounts (15 μg and 30 μg). In all tests 20 mg of mannitol were added as cake forming.

For data set [3] the following is noted: cited from earlier work.

Here are results for two compounds from US20230330278A1, “METHODS FOR RADIOLABELLING PSMA BINDING LIGANDS AND THEIR KITS” (Novartis AG, priority 2020, published 2023).

SMILES strings stand for the structures.

Take `O=C([O-])CN1CCN(CC(=O)[O-])CCN(CC(=O)NCCCCCC(=O)N(CCCC[C@H](NC(=O)N[C@@H](CCC(=O)O)C(=O)O)C(=O)O)Cc2ccc(Br)cc2)CCN(CC(=O)[O-])CC1.[68Ga+3]` [68GaPSMA-R2]: the biodistribution profile entry in data set [1] is “favourable biodistribution profile in tumor models (major uptake in tumor and kidneys, relatively low uptake in other organs)”. Further, in data set [2], the “stability to the radiolytic degradation” value was “good stability to the radiolytic degradation” and the radiochemical purity result is “higher than 92%”. In addition, in data set [2] (listed as 68Ga-PSMA-R2), the “stability to the radiolytic degradation” value is on record as “intrinsic stability to the radiolytic degradation” and the radiochemical purity entry is on record as “over 92%”. In data set [2] (when gentisic acid is not used in the formulation), the 68Ga free entry is recorded as “under 2%”.

Regarding `O=C(O)CCC(=O)O` [Succinic acid], in data set [3], the “pKa (20° C.)” value is 4.22.
